Where a name gives a salt, the structure may show the parent alone.
Columns and labels:
[1] = acute toxicity (LD50), intravenous, mice; conditions: mouse, in vivo; intravenous administration in mice
Source text: On the other hand, it was confirmed that the toxicity of the compounds of the present invention was very low. […] Therefore, the compounds of the present invention may be considered to be sufficiently safe and suitable for pharmaceutical use.

β-receptor (trachea) = target: T1, β-receptor (trachea) (Cavia porcellus, UniProt Q8K4Z4); assay: Cardio selectivity of β-receptor blocking effect in vitro: isolated trachea, isoproterenol concentration-response; type: cell-based, guinea pig; conditions: against isoproterenol (10^-10 M to 10^-4 M), read-out: pA2 value trachea (converted)
T1 construct: Trachea was cut into zigzag strip and connected to a force transducer; from tissue; host or cells: isolated guinea pig tracheal zigzag strip
T1 sequence (Q8K4Z4 whole entry): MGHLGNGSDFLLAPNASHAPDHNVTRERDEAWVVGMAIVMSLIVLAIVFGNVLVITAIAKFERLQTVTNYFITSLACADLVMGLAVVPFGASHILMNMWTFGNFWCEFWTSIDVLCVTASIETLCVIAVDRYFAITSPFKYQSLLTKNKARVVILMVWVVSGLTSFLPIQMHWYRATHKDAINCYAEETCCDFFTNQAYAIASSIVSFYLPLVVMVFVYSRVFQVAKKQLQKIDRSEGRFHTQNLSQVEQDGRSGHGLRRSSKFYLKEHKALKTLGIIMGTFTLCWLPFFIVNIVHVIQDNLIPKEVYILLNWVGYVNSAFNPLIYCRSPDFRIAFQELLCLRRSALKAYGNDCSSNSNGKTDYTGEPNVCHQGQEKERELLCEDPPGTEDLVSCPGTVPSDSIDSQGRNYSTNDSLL
Source text: Concentration-response curves to isoproterenol were then obtained.

β1 -receptor = assay: β-blocking activity in vivo: inhibition of isoproterenol-induced tachycardia in anesthetized dogs; conditions: for Inhibitory effect after administration of compounds of the present invention (inhibition of isoproterenol-induced tachycardia), 10 min: 10 min (during infusion); for Inhibitory effect after administration of compounds of the present invention (inhibition of isoproterenol-induced tachycardia), 10 min / Inhibitory effect after administration of compounds of the present invention (inhibition of isoproterenol-induced tachycardia), 20 min / Inhibitory effect after administration of compounds of the present invention (inhibition of isoproterenol-induced tachycardia), 30 min / Inhibitory effect after administration of compounds of the present invention (inhibition of isoproterenol-induced tachycardia), 35 min / Inhibitory effect after administration of compounds of the present invention (inhibition of isoproterenol-induced tachycardia), 40 min / Inhibitory effect after administration of compounds of the present invention (inhibition of isoproterenol-induced tachycardia), 50 min / Inhibitory effect after administration of compounds of the present invention (inhibition of isoproterenol-induced tachycardia), 60 min: 10 μg/kg/min iv infusion for 30 minutes; for Inhibitory effect after administration of compounds of the present invention (inhibition of isoproterenol-induced tachycardia), 20 min: 20 min (during infusion); for Inhibitory effect after administration of compounds of the present invention (inhibition of isoproterenol-induced tachycardia), 30 min: 30 min (end of infusion); for Inhibitory effect after administration of compounds of the present invention (inhibition of isoproterenol-induced tachycardia), 35 min: 35 min (after infusion); for Inhibitory effect after administration of compounds of the present invention (inhibition of isoproterenol-induced tachycardia), 40 min: 40 min (after infusion); for Inhibitory effect after administration of compounds of the present invention (inhibition of isoproterenol-induced tachycardia), 50 min: 50 min (after infusion); for Inhibitory effect after administration of compounds of the present invention (inhibition of isoproterenol-induced tachycardia), 60 min: 60 min (after infusion); for Duration of action: time required to decrease the inhibition percent 30 minutes after administration to half, 10 μg/kg/min iv infusion
Procedure: β-blocking activity of the compounds of the present invention in vivo
Dogs were anesthetized with sodium barbital (300 mg/kg, ip). A femoral artery and both femoral veins were cannulated. Blood pressure was measured with a pressure transducer. Heart rate was measured from the blood pressure signal using a cardiotachometer. The β-blocking activity was assessed by the inhibition of isoproterenol-induced tachycardia. Isoproterenol was administered intravenously (0.1~0.3 μg/kg) at 10 minutes intervals. When a regular tachycardia induced by isoproterenol was given, the compound of the present invention was administered (10 μg/kg/min, iv infusion) for 30 minutes. Isoproterenol was given repeatedly during and following infusion of a test compound. The inhibitory effects of the compounds of the present invention on tachycardia were calculated.
Inhibition (%)=((ΔRO-ΔRa)/ΔRO)×100
ΔRO: the increment of heart rate by isoproterenol before infusion of the compound of the present invention
ΔRa: the increment of heart rate by isoproterenol during and after infusion of the compound of the present invention

## CC1(C)OC[C@@H](COC(=O)CCc2ccc(OC[C@@H](O)CNCCNC(=O)N3CCOCC3)cc2)O1 [2 (b), (2,2-dimethyl-1,3-dioxolan-4S-yl)methyl 3-[4-[2S-hydroxy-3-(2-morpholinocarbonylaminoethyl)aminopropoxy]phenyl]propionate 1/2 oxalate]
[1]
  LD50: 290 mg/kg
β-receptor (trachea)
  Kb: 66.1 µM

## O=C(CCc1ccc(OCC(O)CNCCNC(=O)N2CCOCC2)cc1)OCC1COC2(CCCC2)O1 (stereo not shown) [3 (c), (1,4-dioxaspiro[4,4]-nonan-2-yl)methyl 3-[4-[2-hydroxy-3-(2-morpholinocarbonylaminoethyl)aminopropoxy]phenyl]-ropionate 1/2 oxalate]
β1 -receptor
  Inhibitory effect after administration of compounds of the present invention (inhibition of isoproterenol-induced tachycardia), 10 min: 38.3%
  Inhibitory effect after administration of compounds of the present invention (inhibition of isoproterenol-induced tachycardia), 20 min: 46.9%
  Inhibitory effect after administration of compounds of the present invention (inhibition of isoproterenol-induced tachycardia), 30 min: 40.4%
  Inhibitory effect after administration of compounds of the present invention (inhibition of isoproterenol-induced tachycardia), 35 min: 37.0%
  Inhibitory effect after administration of compounds of the present invention (inhibition of isoproterenol-induced tachycardia), 40 min: 20.1%
  Inhibitory effect after administration of compounds of the present invention (inhibition of isoproterenol-induced tachycardia), 50 min: -2.6%
  Inhibitory effect after administration of compounds of the present invention (inhibition of isoproterenol-induced tachycardia), 60 min: -1.3%
  Duration of action: 10 min

## CC1(C)OCC(COC(=O)CCc2ccc(OC[C@@H](O)CNCCNC(=O)N3CCOCC3)c(F)c2)O1 (stereo partly drawn) [3 (e), (2,2-dimethyl-1,3-dioxolan-4-yl)methyl 3-[3-fluoro-4-[2S-hydroxy-3-(2-morpholinocarbonylaminoethyl)aminopropoxy]phenyl]propionate 1/2 oxalate]
β1 -receptor
  Inhibitory effect after administration of compounds of the present invention (inhibition of isoproterenol-induced tachycardia), 10 min: 49.6%
  Inhibitory effect after administration of compounds of the present invention (inhibition of isoproterenol-induced tachycardia), 20 min: 58.5%
  Inhibitory effect after administration of compounds of the present invention (inhibition of isoproterenol-induced tachycardia), 30 min: 63.8%
  Inhibitory effect after administration of compounds of the present invention (inhibition of isoproterenol-induced tachycardia), 35 min: 45.4%
  Inhibitory effect after administration of compounds of the present invention (inhibition of isoproterenol-induced tachycardia), 40 min: 32.7%
  Inhibitory effect after administration of compounds of the present invention (inhibition of isoproterenol-induced tachycardia), 50 min: 10.8%
  Inhibitory effect after administration of compounds of the present invention (inhibition of isoproterenol-induced tachycardia), 60 min: -3.3%
  Duration of action: 10 min

## CC1(C)OCC(COC(=O)CCc2ccc(OC[C@@H](O)CNCCNC(=O)N3CCOCC3)c(C#N)c2)O1 (stereo partly drawn) [3 (j), (2,2-dimethyl-1,3-dioxolan-4-yl)methyl 3-[3-cyano-4-[2S-hydroxy-3-(2-morpholinocarbonylaminoethyl)aminopropoxy]phenyl]propionate 1/2 oxalate]
β1 -receptor
  Inhibitory effect after administration of compounds of the present invention (inhibition of isoproterenol-induced tachycardia), 10 min: 75.7%
  Inhibitory effect after administration of compounds of the present invention (inhibition of isoproterenol-induced tachycardia), 20 min: 69.0%
  Inhibitory effect after administration of compounds of the present invention (inhibition of isoproterenol-induced tachycardia), 30 min: 68.7%
  Inhibitory effect after administration of compounds of the present invention (inhibition of isoproterenol-induced tachycardia), 35 min: 48.9%
  Inhibitory effect after administration of compounds of the present invention (inhibition of isoproterenol-induced tachycardia), 40 min: 38.3%
  Inhibitory effect after administration of compounds of the present invention (inhibition of isoproterenol-induced tachycardia), 50 min: 19.3%
  Inhibitory effect after administration of compounds of the present invention (inhibition of isoproterenol-induced tachycardia), 60 min: 13.6%
  Duration of action: 12 min

## CN1CCN(C(=O)NCCNC[C@H](O)COc2ccc(CCC(=O)OCC3COC(C)(C)O3)cc2)CC1 (stereo partly drawn) [3 (l), (2,2-dimethyl-1,3-dioxolan-4-yl)methyl 3-[4-[2S-hydroxy-3-[2-(4-methylpiperazin-1-yl)carbonylaminoethyl]aminopropoxy]phenyl]propionate 1/2 oxalate]
β1 -receptor
  Inhibitory effect after administration of compounds of the present invention (inhibition of isoproterenol-induced tachycardia), 10 min: 60.2%
  Inhibitory effect after administration of compounds of the present invention (inhibition of isoproterenol-induced tachycardia), 20 min: 58.6%
  Inhibitory effect after administration of compounds of the present invention (inhibition of isoproterenol-induced tachycardia), 30 min: 59.8%
  Inhibitory effect after administration of compounds of the present invention (inhibition of isoproterenol-induced tachycardia), 35 min: 55.6%
  Inhibitory effect after administration of compounds of the present invention (inhibition of isoproterenol-induced tachycardia), 40 min: 41.8%
  Inhibitory effect after administration of compounds of the present invention (inhibition of isoproterenol-induced tachycardia), 50 min: 19.6%
  Inhibitory effect after administration of compounds of the present invention (inhibition of isoproterenol-induced tachycardia), 60 min: 16.3%
  Duration of action: 15 min
